Reference: ChEMBL document CHEMBL1201862, “PubChem BioAssay data set” (2004)
Values joined by “and” are separate entries in the source; they are usually repeats but may differ in a detail not shown here. Equal entries are not always repeated.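 Step 1: Grow cells in 96-well plates. Step 2: Expose to compound for 48 hours at 5 concentrations. Step 3: Interpolate endpoints linearly; if unreached, use highest concentration. Here, GI50 denotes the concentration required for 50% inhibition of growth.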 Active and inactive are the calls of the source. Rule as the data show it: active = GI50 up to about 1.1 µM and inactive = higher.

Tests used:
Assay in all cases: DTP human tumour cell line panel, 48 h
SK-MEL-5 = system: SK-MEL-5
NCI-H23 = system: NCI-H23
HOP-92 = system: HOP-92
NCI-H460 = system: NCI-H460
SK-MEL-2 = system: SK-MEL-2
PC-3 = system: PC-3
OVCAR-4 = system: OVCAR-4
HCT-116 = system: HCT-116
SN12C = system: SN12C
UO-31 = system: UO-31
Malme-3M = system: Malme-3M
SF-268 = system: SF-268
MDA-MB-231 = system: MDA-MB-231
OVCAR-8 = system: OVCAR-8
NCI-H522 = system: NCI-H522
T47D = system: T47D
BT-549 = system: BT-549
A549 = system: A549
EKVX = system: EKVX
SR = system: SR

Structure (SMILES)	GI50 (SK-MEL-5)	GI50 (NCI-H23)	GI50 (HOP-92)	GI50 (NCI-H460)	GI50 (SK-MEL-2)	GI50 (PC-3)	GI50 (OVCAR-4)	GI50 (HCT-116)	GI50 (SN12C)	GI50 (UO-31)	GI50 (Malme-3M)	GI50 (SF-268)	GI50 (MDA-MB-231)	GI50 (OVCAR-8)	GI50 (NCI-H522)	GI50 (T47D)	GI50 (BT-549)	GI50 (A549)	GI50 (EKVX)	GI50 (SR)
O=C(CC1(O)CCCCC1)OC1CCCC1	> 100 µM (inactive)	> 100 µM (inactive)	> 100 µM (inactive)	> 100 µM (inactive)	> 100 µM (inactive)	> 100 µM (inactive)	> 100 µM (inactive)	> 100 µM (inactive)	> 100 µM (inactive)	> 100 µM (inactive)	> 100 µM (inactive)	> 100 µM (inactive)	> 100 µM (inactive)	> 100 µM (inactive)	> 100 µM (inactive)	> 100 µM (inactive)	> 100 µM (inactive)	> 100 µM (inactive)	> 100 µM (inactive)	–
N#CC1=CNc2sccc2S1(=O)=O	76.4 µM (inactive)	> 100 µM (inactive)	> 100 µM (inactive)	40.7 µM (inactive)	> 100 µM (inactive)	> 100 µM (inactive)	> 100 µM (inactive)	89.7 µM (inactive)	> 100 µM (inactive)	92.9 µM (inactive)	> 100 µM (inactive)	81.7 µM (inactive)	> 100 µM (inactive)	> 100 µM (inactive)	> 100 µM (inactive)	72.9 µM (inactive)	> 100 µM (inactive)	> 100 µM (inactive)	> 100 µM (inactive)	–
N#C/C(C(=O)Nc1ccccc1)=C(/N)N1CCCC1	> 100 µM (inactive)	> 100 µM (inactive)	> 100 µM (inactive)	> 100 µM (inactive)	> 100 µM (inactive)	> 100 µM (inactive)	> 100 µM (inactive)	> 100 µM (inactive)	> 100 µM (inactive)	97.9 µM (inactive)	> 100 µM (inactive)	> 100 µM (inactive)	> 100 µM (inactive)	> 100 µM (inactive)	> 100 µM (inactive)	35.2 µM (inactive)	–	> 100 µM (inactive)	72.3 µM (inactive)	> 100 µM (inactive)
CCOC(=O)NCC(=O)NCC(=O)NCC(N)=O	> 100 µM (inactive)	> 100 µM (inactive)	–	–	> 100 µM (inactive)	> 100 µM (inactive)	> 100 µM (inactive)	> 100 µM (inactive)	–	> 100 µM (inactive)	> 100 µM (inactive)	> 100 µM (inactive)	> 100 µM (inactive)	> 100 µM (inactive)	> 100 µM (inactive)	> 100 µM (inactive)	> 100 µM (inactive)	> 100 µM (inactive)	> 100 µM (inactive)	> 100 µM (inactive)
O=[N+]([O-])c1ccc2[nH]c(=S)[nH]c(=S)c2c1	> 100 µM (inactive)	> 100 µM (inactive)	> 100 µM (inactive)	> 100 µM (inactive)	> 100 µM (inactive)	> 100 µM (inactive)	> 100 µM (inactive)	> 100 µM (inactive)	> 100 µM (inactive)	> 100 µM (inactive)	> 100 µM (inactive)	> 100 µM (inactive)	> 100 µM (inactive)	> 100 µM (inactive)	> 100 µM (inactive)	> 100 µM (inactive)	–	> 100 µM (inactive)	> 100 µM (inactive)	> 100 µM (inactive)
Cc1c2c(OCCCCN3CCN(c4ncccn4)CC3)nn(C)c(=O)c2c(C)n1-c1ccccc1	13.8 µM (inactive)	19.1 µM (inactive)	16.4 µM (inactive)	17.4 µM (inactive)	19.6 µM (inactive)	20.4 µM (inactive)	19.5 µM (inactive)	16.9 µM (inactive)	17.2 µM (inactive)	15.8 µM (inactive)	20.2 µM (inactive)	18.7 µM (inactive)	16 µM (inactive)	24.7 µM (inactive)	18.4 µM (inactive)	17.9 µM (inactive)	19.3 µM (inactive)	20.7 µM (inactive)	19.1 µM (inactive)	–
N#Cc1c(-c2ccccc2)c(C#N)c(=S)n(C2OC(CO)C(O)C(O)C2O)c1N (stereo not given)	71.6 µM (inactive)	> 100 µM (inactive)	–	94 µM (inactive)	> 100 µM (inactive)	> 100 µM (inactive)	> 100 µM (inactive)	> 100 µM (inactive)	> 100 µM (inactive)	–	> 100 µM (inactive)	> 100 µM (inactive)	> 100 µM (inactive)	> 100 µM (inactive)	33.4 µM (inactive) and 51.5 µM (inactive)	52.6 µM (inactive) and 68.5 µM (inactive)	46.1 µM (inactive) and 80 µM (inactive)	> 100 µM (inactive)	–	> 100 µM (inactive)
O=C(CCCN1CC=C(n2c(=O)[nH]c3ccccc32)CC1)c1cccs1	> 100 µM (inactive)	> 100 µM (inactive)	> 100 µM (inactive)	63.5 µM (inactive)	> 100 µM (inactive)	93.3 µM (inactive)	> 100 µM (inactive)	> 100 µM (inactive)	> 100 µM (inactive)	> 100 µM (inactive)	> 100 µM (inactive)	> 100 µM (inactive)	> 100 µM (inactive)	> 100 µM (inactive)	> 100 µM (inactive)	> 100 µM (inactive)	–	> 100 µM (inactive)	> 100 µM (inactive)	> 100 µM (inactive)
Cc1cc2[nH]c3c(C#N)c(-c4ccccc4)c(CN4CCOCC4)c(=O)n3c2cc1C	–	> 100 µM (inactive)	–	> 100 µM (inactive)	> 100 µM (inactive)	> 100 µM (inactive)	> 100 µM (inactive)	> 100 µM (inactive)	> 100 µM (inactive)	> 100 µM (inactive)	> 100 µM (inactive)	> 100 µM (inactive)	> 100 µM (inactive)	> 100 µM (inactive)	> 100 µM (inactive)	> 100 µM (inactive)	> 100 µM (inactive)	> 100 µM (inactive)	> 100 µM (inactive)	–
COC(=O)/C=c1/c2ccccc2n2c1c1ccccc1[n+]2C	2.81 µM (inactive)	3.29 µM (inactive)	–	3.37 µM (inactive)	4.08 µM (inactive)	2.81 µM (inactive)	4.11 µM (inactive)	3.31 µM (inactive)	3.65 µM (inactive)	7.13 µM (inactive)	2.98 µM (inactive)	5.38 µM (inactive)	4.59 µM (inactive)	3.33 µM (inactive)	–	3.86 µM (inactive)	3.3 µM (inactive)	3.82 µM (inactive)	3.08 µM (inactive)	–
Cc1csc(-n2nc(C)cc2C)n1	> 100 µM (inactive)	> 100 µM (inactive)	–	> 100 µM (inactive)	> 100 µM (inactive)	> 100 µM (inactive)	> 100 µM (inactive)	> 100 µM (inactive)	> 100 µM (inactive)	> 100 µM (inactive)	> 100 µM (inactive)	> 100 µM (inactive)	> 100 µM (inactive)	> 100 µM (inactive)	> 100 µM (inactive)	> 100 µM (inactive)	> 100 µM (inactive)	> 100 µM (inactive)	> 100 µM (inactive)	–
Cc1cc2nc(-c3cc(C(C)(C)C)c(O)c(C(C)(C)C)c3)[nH]c2cc1C	> 71 µM (inactive)	> 34 µM (inactive)	> 100 µM (inactive)	4.47 µM (inactive)	> 100 µM (inactive)	7.19 µM (inactive)	1.54 µM (inactive)	1.79 µM (inactive)	9.62 µM (inactive)	6.17 µM (inactive)	> 100 µM (inactive)	9.62 µM (inactive)	–	12.7 µM (inactive)	> 100 µM (inactive)	> 100 µM (inactive)	> 100 µM (inactive)	2.44 µM (inactive)	> 39.1 µM (inactive)	1.06 µM (active)
CCOC(CN(C)C(=O)Nc1cccc2ccccc12)OCC	> 10 µM (inactive)	> 10 µM (inactive)	> 10 µM (inactive)	> 10 µM (inactive)	> 10 µM (inactive)	> 10 µM (inactive)	> 10 µM (inactive)	> 10 µM (inactive)	> 10 µM (inactive)	> 10 µM (inactive)	> 10 µM (inactive)	> 10 µM (inactive)	> 10 µM (inactive)	> 10 µM (inactive)	> 10 µM (inactive)	> 10 µM (inactive)	–	> 10 µM (inactive)	> 10 µM (inactive)	> 10 µM (inactive)
O=C1NC(Nc2ccccc2)=N/C1=C\c1c(Cl)cccc1Cl	16.3 µM (inactive)	29.6 µM (inactive)	11.9 µM (inactive)	24.9 µM (inactive)	18 µM (inactive)	17.8 µM (inactive)	7.18 µM (inactive)	27.4 µM (inactive)	15.7 µM (inactive)	4.42 µM (inactive)	22.7 µM (inactive)	29.3 µM (inactive)	–	19.1 µM (inactive)	53.3 µM (inactive)	30.8 µM (inactive)	> 100 µM (inactive)	18.2 µM (inactive)	20.6 µM (inactive)	5.09 µM (inactive)
Cc1cccc2c1[C@]13OC(C)[C@]4(C)CC5OC(=O)[C@@]1(C)[C@@H]5[C@]34C(=O)O2 (stereo not given in full)	> 100 µM (inactive)	> 100 µM (inactive)	–	> 100 µM (inactive)	> 100 µM (inactive)	> 100 µM (inactive)	–	> 100 µM (inactive)	> 100 µM (inactive)	> 100 µM (inactive)	> 100 µM (inactive)	> 100 µM (inactive)	> 100 µM (inactive)	> 100 µM (inactive)	> 100 µM (inactive)	> 100 µM (inactive)	> 100 µM (inactive)	> 100 µM (inactive)	> 100 µM (inactive)	> 100 µM (inactive)
